Assay results published in patent US20080274095A1, “Biocides” (priority 2004, published 2008).
Ends that are not written are not given here.

How the values were obtained:
Caco-2 Host Cells = test: Host cell toxicity assay by LDH release; format: cell-based, human
Method: Host cell toxicity assay was performed by measuring the release of lactate dehydrogenase (LDH) in the medium using a CYTOTOX 96 Non-Radioactive Cytotoxicity Assay kit (Promega, Madison, Wis.). Toxicity was therefore classified as non toxic 0-5% LDH release and mild toxicity 5-10% LDH release (ref).

C. parvum sporozoites = test: Effect of PLA2 on C. parvum sporozoite infectivity for Caco-2 monolayers; format: cell-based, Cryptosporidium parvum
Method: This experiment describes the effects of PLA2 on sporozoite infectivity. Briefly, sporozoites were incubated in an isotonic saline solution (37° C., 30 min) with a range of concentrations of PLA2 isolated from honey bee venom (Sigma-Aldrich Corp., St. Louis, Mo., 1.5 U/μg protein). Control sporozoites were identically incubated in buffer containing concentration-matched BSA but no PLA2. Sporozoites were then washed in medium and inoculated onto replicate Caco-2 human intestinal epithelial cell monolayers. 24 h later, infection was quantified in test and control monolayers by immunofluorescence assay as described herein and the mean percent reduction of infection calculated. […] Percent viability of Caco-2 cells following exposure to PLA2-treated sporozoites (86%) was similar to that of uninoculated control cells (91%) at 24 hrs, as determined by trypan blue dye exclusion. […]
For this assay, isolated sporozoites are incubated (15 min, 37° C.) with an individual biocide in isotonic buffer over a range of concentrations that would theoretically be achievable at the sporozoite surface by targeted delivery as a MAb-biocide fusion protein. […] In parallel, viability of control sporozoites after incubation with the selected biocide concentrations is determined by fluorescein diacetate assay. […] Samples are then processed and evaluated as described herein. […]

Caco-2 cells = test: Caco-2 cell viability by trypan blue dye exclusion; format: cell-based, human; details: following exposure to PLA2-treated sporozoites, 24 hrs
Method: This experiment describes the effects of PLA2 on sporozoite infectivity. Briefly, sporozoites were incubated in an isotonic saline solution (37° C., 30 min) with a range of concentrations of PLA2 isolated from honey bee venom (Sigma-Aldrich Corp., St. Louis, Mo., 1.5 U/μg protein). Control sporozoites were identically incubated in buffer containing concentration-matched BSA but no PLA2. Sporozoites were then washed in medium and inoculated onto replicate Caco-2 human intestinal epithelial cell monolayers. 24 h later, infection was quantified in test and control monolayers by immunofluorescence assay as described herein and the mean percent reduction of infection calculated. […] Percent viability of Caco-2 cells following exposure to PLA2-treated sporozoites (86%) was similar to that of uninoculated control cells (91%) at 24 hrs, as determined by trypan blue dye exclusion. […] Through fusion of PLA2 to a monoclonal antibody with a high affinity for sporozoites, such as 1E10 or 4H9, lethal concentrations of biocide are deliverable to the sporozoite surface with relatively low amounts of biocide being used.

[1] = read-out: affinity constant (Km) for substrate; cited from earlier work
[2] = test system: panel of organisms in stationary growth phase; details: cited from earlier work

| Molecule | % LDH release (Caco-2 Host Cells; 100 μg/ml) | % LDH release (Caco-2 Host Cells; 10 μg/ml) | also measured |
| --- | --- | --- | --- |
| phospho-inositol specific phospholipase C [PI-PLC] | −1.4 ± 0.9% |  |  |
| bee-venom phospholipase A2 [PLA2] | 0.7 ± 0.7% |  | concentration effective in neutralization (C. parvum sporozoites; preliminary data): < 0.02 units/ml; concentration achieving highly significant reduction of sporozoite infectivity (C. parvum sporozoites; sporozoites incubated 37° C., 30 min with bee venom PLA2, Caco-2 monolayers, 24 h, P<0.0005): ≤ 0.014 U/ml; Percent viability of Caco-2 cells (Caco-2 cells): 86% |
| CC[C@H](C)[C@H](NC(=O)[C@H](CCCCN)NC(=O)[C@H](CCC(=O)O)NC(=O)[C@H](CCCCN)NC(=O)[C@H](CO)NC(=O)[C@H](CCCCN)NC(=O)[C@H](CCCNC(=N)N)NC(=O)[C@H](Cc1ccccc1)NC(=O)[C@H](Cc1ccccc1)NC(=O)[C@H](CC(=O)O)NC(=O)CNC(=O)[C@H](CC(C)C)NC(=O)[C@@H](N)CC(C)C)C(=O)NCC(=O)N[C@@H](CCCCN)C(=O)N[C@@H](CCC(=O)O)C(=O)N[C@@H](Cc1ccccc1)C(=O)N[C@@H](CCCCN)C(=O)N[C@@H](CCCNC(=N)N)C(=O)N[C@H](C(=O)N[C@H](C(=O)N[C@@H](CCC(N)=O)C(=O)N[C@@H](CCCNC(=N)N)C(=O)N[C@H](C(=O)N[C@@H](CCCCN)C(=O)N[C@@H](CC(=O)O)C(=O)N[C@@H](Cc1ccccc1)C(=O)N[C@@H](CC(C)C)C(=O)N[C@@H](CCCNC(=N)N)C(=O)N[C@@H](CC(N)=O)C(=O)N[C@@H](CC(C)C)C(=O)N[C@H](C(=O)N1CCC[C@H]1C(=O)N[C@@H](CCCNC(=N)N)C(=O)N[C@H](C(=O)N[C@@H](CCC(=O)O)C(=O)N[C@@H](CO)C(=O)O)[C@@H](C)O)C(C)C)[C@@H](C)CC)C(C)C)[C@@H](C)CC [CAT, cathelicidin] | 5.6 ± 0.9 % | 1.6 ± 0.3 % |  |
| indolicidin | 8.3 ± 3.5 % | 0.9 ± 0.7% |  |
| lactoferricin B [LFB] | 2.6 ± 2.0% | 3.7 ± 2.3% |  |
| phospholipase A2 |  |  | Km [1]: ~100 µM |
| NP-1: rabbit neutrophil defensin, SEQ ID NO 42 (VVCACRRALCLPRERRAGFCRIRGRIHPLCCRR) |  |  | antimicrobial properties relative to other defensins [2]: most potent antimicrobial properties |
| b-defensin 1 (DHYNCVSSGGQCLYSACPIFTKIQGTCYRGKAKCCK; ends and bridges not checked; cysteine pairing not given here; UniProt P60022 33-68, looked up) [βD1, Peptides international] | 2.3 ± 2.1% | 0.8 ± 1.0% |  |
| lysozyme [LYZ] | −1.9 ± 1.3% |  | Km [1]: ~1000 µM |
| b-defensin 2 [βD2] | 5.3 ± 1.5 % | −0.9 ± 0.5% |  |
| HNP-1: human neutrophil defensin, SEQ ID NO 38 |  |  | antimicrobial properties relative to other defensins [2]: most potent antimicrobial properties |
